46 molecules from US7265130B2, “NPY Y5 antagonist” (Shionogi & Co., Ltd., priority 1999, dated 2007) can be followed below.

Each structure is given as a SMILES string. pIC50: −log10 of the molar value.

For test [1], the target named is T1, human NPY Y5 receptor (Homo sapiens, UniProt Q15761).
T1 construct: expressed in transfected cells
T1 sequence (Q15761 1-445): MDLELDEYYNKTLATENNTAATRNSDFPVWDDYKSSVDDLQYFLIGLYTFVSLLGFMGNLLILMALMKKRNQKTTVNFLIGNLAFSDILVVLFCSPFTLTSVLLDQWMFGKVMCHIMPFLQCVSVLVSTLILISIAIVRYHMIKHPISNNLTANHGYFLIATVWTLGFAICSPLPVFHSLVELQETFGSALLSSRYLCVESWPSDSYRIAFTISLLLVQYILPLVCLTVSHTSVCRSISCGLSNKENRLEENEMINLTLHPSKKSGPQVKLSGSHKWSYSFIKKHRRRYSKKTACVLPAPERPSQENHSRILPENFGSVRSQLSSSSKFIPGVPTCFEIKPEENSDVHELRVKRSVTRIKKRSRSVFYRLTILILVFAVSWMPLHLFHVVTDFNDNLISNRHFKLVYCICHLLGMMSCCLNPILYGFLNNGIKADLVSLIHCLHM
The experiment in a line: Affinity for NPY Y5 receptor ([125I] peptide YY binding, CHO cell membranes). Particulars: inhibition of specific [125I] peptide YY binding, membranes of CHO cells expressing NPY Y5 receptor. The source says:
Experiment 1 Affinity for NPY Y5 Receptor
cDNA sequence encoding a human NPY Y5 receptor (WO096/16542) was cloned in the expression vector pME18S (Takebe et al. Mol. Cell. Biol. 8, 8957). The obtained expression vector was transfected into a host CHO cells by using a Lipofect AMINE reagent (Trademark, Gibco BRL Co., Ltd.) according to an instruction protocol to obtain the cells that stably express NPY Y5 receptor.
The membranes prepared from the above CHO cells expressing NPY Y5 receptor, the compound of the present invention and 30,000 cpm [^125I] peptide YY (60 pM of final concentration: Amersham) were incubated in the assay buffer (20 mM HEPES-Hanks buffer containing 0.1% bovine serum albumin, pH 7.4) at 25° C. for 2 hours, and then the mixture was filtered with a glassfilter GF/C treated with polyethyleneimine. After the glassfilter was washed with 50 mM Tris-HCl buffer (pH 7.4), the radioactivity on the filter was measured with a gamma counter. The non-specific binding was detected in the presence of 200 nM of peptide YY. The 50% inhibitory concentration of the test compound against the specific peptide YY binding (IC50 value) was calculated (Inui, A. et al. Endocrinology 131, 2090-2096 (1992)).

For test [2], the target named is T1, human NPY Y5 receptor. The experiment in a line: cAMP production inhibitory activity in CHO cells. It is filed as cell-based. Conditions: against 50 nM NPY inhibition of forskolin stimulated cAMP, CHO cells expressing human NPY Y5 receptor. The protocol:
Experiment 2 cAMP production inhibitory activity in CHO cells
After CHO cells expressing human NPY Y5 receptor were incubated in the presence of 2.5 mM isobutylmethylxanthine (SIGMA) at 37° C. for 20 min., the compound of the present invention was added and incubated for 5 min. Then, 50 nM NPY and 10 μM forskolin (SIGMA) were added to the cells and incubated for 30 min. After the reaction was terminated by adding 1N HCl, the amount of cAMP in the supernatant was measured with EIA kit (Amersham LIFE SCIENCE).

As for `CC(C)(C)S(=O)(=O)NC1CCC(C(=O)Nc2cnc3ccccc3c2)CC1` (centres unmarked) [Compound I-139], the pIC50 on human NPY Y5 receptor [1] was 9.39; against human NPY Y5 receptor [2] it was 8.12.
In the case of `CC(C)(C)S(=O)(=O)NC1CCC(C(=O)Nc2ccc3ncccc3c2)CC1` (centres unmarked) [Compound I-140], the pIC50 was 9.32 at human NPY Y5 receptor [1] and 8.05 against human NPY Y5 receptor [2].
Regarding `COc1ccc(NC(=O)C2CCC(NS(=O)(=O)C(C)(C)C)CC2)c(Sc2ccccc2)n1` (centres unmarked) [Compound I-141], the negative-log IC50 (pIC50) on human NPY Y5 receptor [1] was 9.38; on human NPY Y5 receptor [2], 8.13.
Regarding `CC(C)(C)S(=O)(=O)NC1CCC(C(=O)Nc2nc(-c3cccc4ccccc34)cs2)CC1` (centres unmarked) [Compound I-142], the negative logarithm of the IC50 (pIC50) on human NPY Y5 receptor [1] was 9.31; at human NPY Y5 receptor [2], 7.55.
Consider `COC(=O)c1scc(NC(=O)C2CCC(NS(=O)(=O)C(C)(C)C)CC2)c1C(=O)OC` (centres unmarked) [Compound I-143], for which the figures for the negative logarithm of the IC50 (pIC50) on human NPY Y5 receptor [1] and against human NPY Y5 receptor [2] were 8.46 and 7.36, respectively.
In the same order, the values of `CC(C)(C)S(=O)(=O)NC1CCC(C(=O)Nc2cccnc2Oc2ccc(F)cc2F)CC1` (centres unmarked) [Compound I-144] are 8.47 and 7.28.
The matching figures for `CC(C)(C)S(=O)(=O)NC1CCC(C(=O)Nc2cc(-c3ccco3)[nH]n2)CC1` (centres unmarked) [Compound I-146]: 8.64 and 7.70.
In the same order, the values of `COc1ccc(CCNC(=O)C2CCC(NS(=O)(=O)C(C)(C)C)CC2)cc1OC` (centres unmarked) [Compound I-147] are 8.15 and 7.20.
Turning to `CCN(CCNC(=O)C1CCC(NS(=O)(=O)C(C)(C)C)CC1)c1ccccc1` (centres unmarked) [Compound I-149], the figures for the pIC50 on human NPY Y5 receptor [1] and at human NPY Y5 receptor [2] were 9.08 and 7.82, respectively.
Take `CC(C)(C)S(=O)(=O)NC1CCC(C(=O)NCCSCc2c(Cl)cccc2Cl)CC1` (centres unmarked) [Compound I-150]: the values for the pIC50 at human NPY Y5 receptor [1] and against human NPY Y5 receptor [2] were 9.77 and 8.28, respectively.
The matching figures for `CC(C)(C)S(=O)(=O)NC1CCC(C(=O)NCCSCc2c(F)cccc2Cl)CC1` (centres unmarked) [Compound I-151]: 9.77 and 8.59.
The matching figures for `CSc1sc(C(=O)NNC(=O)C2CCC(NS(=O)(=O)C(C)(C)C)CC2)c2c1C(O)CCC2` (centres unmarked) [Compound I-153]: 8.77 and 7.54.
Consider `CC(C)(C)S(=O)(=O)NC1CCC(C(=O)Nc2ccc3c(c2)CCC3=O)CC1` (centres unmarked) [Compound I-156], for which the pIC50 is 9.09 at human NPY Y5 receptor [1] and 7.77 against human NPY Y5 receptor [2].
With `CCOc1cccc(NC(=O)C2CCC(NS(=O)(=O)C(C)(C)C)CC2)c1` (centres unmarked) [Compound I-160], the figures for the pIC50 at human NPY Y5 receptor [1] and on human NPY Y5 receptor [2] were 9.21 and 8.06, respectively.
In the same order, the values of `CCCCOc1cccc(NC(=O)C2CCC(NS(=O)(=O)C(C)(C)C)CC2)c1` (centres unmarked) [Compound I-161] are 9.31 and 8.51.
In the same order, the values of `COCOc1cccc(NC(=O)C2CCC(NS(=O)(=O)C(C)(C)C)CC2)c1` (centres unmarked) [Compound I-162] are 8.77 and 7.49.
Regarding `CC(C)(C)S(=O)(=O)NC1CCC(C(=O)Nc2cccc(O)c2)CC1` (centres unmarked) [Compound I-163], the results for the negative-log IC50 (pIC50) on human NPY Y5 receptor [1] and at human NPY Y5 receptor [2] were 8.64 and 7.08, respectively.
In the same order, the values of `CCCCOc1ccc(NC(=O)C2CCC(NS(=O)(=O)C(C)(C)C)CC2)cc1` (centres unmarked) [Compound I-164] are 9.15 and 8.23.
`CCCCOc1ccc(NC(=O)C2CCC(NS(=O)(=O)C(C)(C)C)CC2)c(O)c1` (centres unmarked) [Compound I-165]: the pIC50 at human NPY Y5 receptor [1] was 9.36; at human NPY Y5 receptor [2] it was 7.33.
The matching figures for `CCCCOc1ccc(NC(=O)C2CCC(NS(=O)(=O)C(C)(C)C)CC2)cc1O` (centres unmarked) [Compound I-166]: 9.43 and 8.01.
The matching figures for `CCCCOc1ccc(NC(=O)C2CCC(NS(=O)(=O)C(C)(C)C)CC2)cn1` (centres unmarked) [Compound I-167]: 9.14 and 7.41.
The matching figures for `CC(C)(C)S(=O)(=O)NC1CCC(C(=O)Nc2ccc(Oc3ccccc3)nc2)CC1` (centres unmarked) [Compound I-168]: 8.68 and 7.49.
In the case of `CCCCOc1ccc(NC(=O)C2CCC(NS(=O)(=O)C(C)(C)C)CC2)c([N+](=O)[O-])c1` (centres unmarked) [Compound I-171], the negative-log IC50 (pIC50) on human NPY Y5 receptor [1] is 8.62; against human NPY Y5 receptor [2] it was 7.15.
The matching figures for `CCCCOc1ccc(NC(=O)C2CCC(NS(=O)(=O)C(C)(C)C)CC2)c(N)c1` (centres unmarked) [Compound I-172]: 9.04 and 7.44.
The matching figures for `CCCCOc1cccc(CNC(=O)C2CCC(NS(=O)(=O)C(C)(C)C)CC2)c1` (centres unmarked) [Compound I-187]: 9.24 and 7.89.
In the same order, the values of `CCCCOc1cccc(CONC(=O)C2CCC(NS(=O)(=O)C(C)(C)C)CC2)c1` (centres unmarked) [Compound I-191] are 8.96 and 7.96.
On to `CCOc1ccc(NC(=O)C2CCC(NS(=O)(=O)C(C)(C)C)CC2)cc1OCC` (centres unmarked) [Compound I-196], for which the results for the negative-log IC50 (pIC50) on human NPY Y5 receptor [1] and against human NPY Y5 receptor [2] were 8.85 and 8.17, respectively.
Regarding `CC(=O)c1cccc(NC(=O)C2CCC(NS(=O)(=O)C(C)(C)C)CC2)c1` (centres unmarked) [Compound I-197], the pIC50 was 8.17 at human NPY Y5 receptor [1] and 7.42 against human NPY Y5 receptor [2].
The matching figures for `CC(C)(C)S(=O)(=O)NC1CCC(C(=O)Nc2ccc3c(c2)CCC3=NO)CC1` (centres unmarked) [Compound I-198]: 8.14 and 7.48.
Take `CC(C)(C)S(=O)(=O)NC1CCC(C(=O)Nc2cccc(N3CCOCC3)c2)CC1` (centres unmarked) [Compound I-199]: the pIC50 at human NPY Y5 receptor [1] is 8.32; on human NPY Y5 receptor [2], 7.51.
The matching figures for `CC(C)(C)S(=O)(=O)NC1CCC(C(=O)Nc2ccc3c(c2)OCCO3)CC1` (centres unmarked) [Compound I-202]: 8.17 and 7.17.
The matching figures for `CC(C)(C)S(=O)(=O)NC1CCC(C(=O)Nc2ccc(Cc3ccncc3)cc2)CC1` (centres unmarked) [Compound I-206]: 8.23 and 7.27.
In the same order, the values of `CC(C)(C)S(=O)(=O)NC1CCC(C(=O)Nc2ccc3ncsc3c2)CC1` (centres unmarked) [Compound I-207] are 8.34 and 7.64.
On to `CC(C)(C)S(=O)(=O)NC1CCC(C(=O)Nc2ccc3sccc3c2)CC1` (centres unmarked) [Compound I-210], for which the values for the pIC50 on human NPY Y5 receptor [1] and on human NPY Y5 receptor [2] were 8.96 and 7.89, respectively.
The matching figures for `CC(C)(C)S(=O)(=O)NC1CCC(C(=O)Nc2nnc(-c3ccc(F)cc3)s2)CC1` (centres unmarked) [Compound I-213]: 9.36 and 8.40.
The matching figures for `C[C@@H]1CN(c2cccc(NC(=O)C3CCC(NS(=O)(=O)C(C)(C)C)CC3)c2)C[C@H](C)O1` (some centres unmarked) [Ia-4]: 8.85 and 7.82.
As for `Cc1ccc(NC(=O)C2CCC(NS(=O)(=O)C(C)(C)C)CC2)cc1` (centres unmarked) [Ia-8], the negative-log IC50 (pIC50) on human NPY Y5 receptor [1] is 8.54; against human NPY Y5 receptor [2], 7.47.
In the same order, the values of `CCc1ccc(NC(=O)C2CCC(NS(=O)(=O)C(C)(C)C)CC2)cc1` (centres unmarked) [Ia-9] are 9.03 and 7.96.
In the same order, the values of `CCCc1ccc(NC(=O)C2CCC(NS(=O)(=O)C(C)(C)C)CC2)cc1` (centres unmarked) [Ia-10] are 9.33 and 8.57.
Turning to `CC(C)c1ccc(NC(=O)C2CCC(NS(=O)(=O)C(C)(C)C)CC2)cc1` (centres unmarked) [Ia-11], the results for the pIC50 at human NPY Y5 receptor [1] and on human NPY Y5 receptor [2] were 9.19 and 8.14, respectively.
With `CC(C)(C)c1ccc(NC(=O)C2CCC(NS(=O)(=O)C(C)(C)C)CC2)cc1` (centres unmarked) [Ia-13], the pIC50 on human NPY Y5 receptor [1] was 8.82; against human NPY Y5 receptor [2], 8.48.
In the same order, the values of `CC(C)(C)S(=O)(=O)NC1CCC(C(=O)Nc2ccc(Cl)cc2)CC1` (centres unmarked) [Ia-14] are 8.32 and 7.55.
Take `CC(C)(C)S(=O)(=O)NC1CCC(C(=O)Nc2ccc(F)c(F)c2F)CC1` (centres unmarked) [Ia-24]: the pIC50 on human NPY Y5 receptor [1] was 8.28; on human NPY Y5 receptor [2], 7.13.
With `C[C@@H]1CN(c2ccc(NC(=O)C3CCC(NS(=O)(=O)C(C)(C)C)CC3)cc2Cl)C[C@H](C)O1` (some centres unmarked) [Ia-25], the figures for the negative logarithm of the IC50 (pIC50) on human NPY Y5 receptor [1] and against human NPY Y5 receptor [2] were 8.96 and 7.74, respectively.
For `COc1ccc(NC(=O)C2CCC(NS(=O)(=O)C(C)(C)C)CC2)cc1F` (centres unmarked) [Ia-36], the pIC50 at human NPY Y5 receptor [1] is 8.80; against human NPY Y5 receptor [2], 7.07.
In the same order, the values of `C[C@@H]1C[C@@H](C)CN(c2ccc(NC(=O)C3CCC(NS(=O)(=O)C(C)(C)C)CC3)cc2)C1` (some centres unmarked) [Ia-38] are 9.00 and 8.66.
